For orientation: EC50 means the concentration needed to bring the measured effect to its halfway point.

Counter-ions that a name gives are not always drawn.

We go through 30 compounds from US9663473B2 (Actelion Pharmaceuticals Ltd, priority 2013, dated 2017).

The target in this experiment is T1, recombinant human ALX receptor (Homo sapiens, UniProt P25090).
T1 construct: expressed in transfected cells; host or cells: HEK293 (HEK293-hALXR-Gα16)
T1 sequence (P25090 1-351): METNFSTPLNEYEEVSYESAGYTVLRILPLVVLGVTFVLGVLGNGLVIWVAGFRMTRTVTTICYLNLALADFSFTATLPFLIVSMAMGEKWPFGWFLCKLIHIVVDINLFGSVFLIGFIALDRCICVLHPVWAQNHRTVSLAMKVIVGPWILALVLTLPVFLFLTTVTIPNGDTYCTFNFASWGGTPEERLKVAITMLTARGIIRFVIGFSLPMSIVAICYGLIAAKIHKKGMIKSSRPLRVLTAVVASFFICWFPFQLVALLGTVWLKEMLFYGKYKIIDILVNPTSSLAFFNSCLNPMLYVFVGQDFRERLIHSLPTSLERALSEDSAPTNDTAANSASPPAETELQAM
The experiment is described as follows: Intracellular calcium measurements (FLIPR), ALX receptor agonistic activity. As to conditions: HEK293-hALXR-Gα16 cells, Fluo-4 calcium signal, normalized to WKYMVm 10 nM. Type of experiment: cell-based. In short, it runs like this:
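Agonist-induced calcium flux was read by FLIPR (488/540 nm) as baseline-subtracted peak emission, expressed relative to WKYMVm at 10 nM final. Cells used: HEK293-hALXR-Gα16, dye-loaded 60 min at 37° C. with 1 μM Fluo-4 AM before compound dose-response addition.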
(A change in cytosolic calcium serves as a functional read-out for many receptors and channels.)

As for `COc1ccc(CC(NC(=O)Nc2ccnn2-c2ccc(C)cc2)c2nc3ccccc3[nH]2)cc1` (stereo not drawn) [Example 420, 1-(1-(1H-benzo[d]imidazol-2-yl)-2-(4-methoxyphenyl)ethyl)-3-(1-(p-tolyl)-1H-pyrazol-5-yl)urea], the EC50 worked out at 207 nM.
With `COc1ccc(CC(NC(=O)N[C@H]2CC[C@@](C)(O)CC2)c2nc3ccccc3[nH]2)cc1F` (relative stereo) [Example 227, 1-(1-(1H-Benzo[d]imidazol-2-yl)-2-(3-fluoro-4-methoxyphenyl)ethyl)-3-(cis-4-hydroxy-4-methylcyclohexyl)urea], the EC50 worked out at 97 nM.
On to `O=C(NC(Cc1ccc(Br)cc1F)c1nc2ccccc2[nH]1)N[C@H]1CC[C@H](O)CC1` (relative stereo) [Example 188, 1-(1-(1H-Benzo[d]imidazol-2-yl)-2-(4-bromo-2-fluorophenyl)ethyl)-3-(trans-4-hydroxycyclohexyl)urea], for which the EC50 was determined as 3.7 nM.
The value for `COc1ccc(CC(NC(=O)Nc2ccnn2-c2ccc(OC(F)(F)F)cc2)c2nc3ccccc3[nH]2)cc1` (stereo not drawn) [Example 413, 1-(1-(1H-benzo[d]imidazol-2-yl)-2-(4-methoxyphenyl)ethyl)-3-(1-(4-(trifluoromethoxy)phenyl)-1H-pyrazol-5-yl)urea] was 153 nM.
Then `COc1ccc(C[C@@H](NC(=O)NCCc2ccccc2F)c2nc3ccccc3[nH]2)cc1` [Example 68, (R)-1-(1-(1H-Benzo[d]imidazol-2-yl)-2-(4-methoxyphenyl)ethyl)-3-(2-fluorophenethyl)urea hydrochloride], with 217 nM.
Take `COc1ccc(CC(NC(=O)N[C@H]2CC[C@H](O)CC2)c2nc3cc(F)ccc3[nH]2)c(F)c1F` (single isomer, unassigned; ent-2) [Example 376, 1-(2-(2,3-Difluoro-4-methoxyphenyl)-1-(5-fluoro-1H-benzo[d]imidazol-2-yl)ethyl)-3-(trans-4-hydroxycyclohexyl)urea (ent-2)]: the EC50 is 67 nM.
Then `COc1ccc(CC(NC(=O)NC2CCOCC2)c2nc3ccccc3[nH]2)cc1` (stereo not drawn) [Example 10, 1-(1-(1H-Benzo[d]imidazol-2-yl)-2-(4-methoxyphenyl)ethyl)-3-(tetrahydro-2H-pyran-4-yl)urea], with 113 nM; and `COc1ccc(C[C@@H](NC(=O)N2CC3CCC2CN3C)c2nc3ccccc3[nH]2)cc1` (stereo partly drawn) [Example 168, N—((R)-1-(1H-Benzo[d]imidazol-2-yl)-2-(4-methoxyphenyl)ethyl)-5-methyl-2,5-diazabicyclo[2.2.2]octane-2-carboxamide], with 87 nM; and `COc1ccc(CC(NC(=O)N[C@H]2CC[C@H](O)CC2)c2nc3ccccc3[nH]2)c(F)c1F` (single isomer, unassigned; ent-1) [Example 365, 1-(1-(1H-Benzo[d]imidazol-2-yl)-2-(2,3-difluoro-4-methoxyphenyl)ethyl)-3-(trans-4-hydroxycyclohexyl)urea (ent-1)], with 1.7 nM.
Take `COc1ccc(CC(NC(=O)NC2CCC2)c2nc3ccccc3[nH]2)cc1` (stereo not drawn) [Example 11, 1-(1-(1H-Benzo[d]imidazol-2-yl)-2-(4-methoxyphenyl)ethyl)-3-cyclobutylurea]: the EC50 turned out to be 62 nM.
The value for `COc1ccc(C[C@@H](NC(=O)NCCCCO)c2nc3ccccc3[nH]2)cc1` [Example 96, (R)-1-(1-(1H-Benzo[d]imidazol-2-yl)-2-(4-methoxyphenyl)ethyl)-3-(4-hydroxybutyl)urea] was 152 nM.
On to `COc1cc(F)c(CC(NC(=O)NC23CCC(O)(CC2)CC3)c2nc3ccc(F)cc3[nH]2)c(F)c1` (single isomer, unassigned; ent-1) [Example 367, 1-(2-(2,6-Difluoro-4-methoxyphenyl)-1-(6-fluoro-1H-benzo[d]imidazol-2-yl)ethyl)-3-(4-hydroxybicyclo[2.2.2]octan-1-yl)urea (ent-1)], for which the EC50 was 0.1 nM.
The value for `COc1ccc(CC(NC(=O)NC2CCCC2)c2nc3ccccc3[nH]2)cc1F` (stereo not drawn) [Example 175, 1-(1-(1H-Benzo[d]imidazol-2-yl)-2-(3-fluoro-4-methoxyphenyl)ethyl)-3-cyclopentylurea] was 209 nM; that for `CC1(O)CCC(NC(=O)NC(Cc2ccc(Br)c(F)c2)c2nc3ccccc3[nH]2)CC1` (single isomer, unassigned; ent-2) [Example 317, 1-(1-(1H-Benzo[d]imidazol-2-yl)-2-(4-bromo-3-fluorophenyl)ethyl)-3-(trans-4-hydroxy-4-methylcyclohexyl)urea (ent-2)] was 5.7 nM; that for `COc1ccc(CC(NC(=O)N[C@H]2CC[C@H](O)CC2)c2nc3ccc(Br)cc3[nH]2)cc1` (relative stereo) [Example 424, 1-(1-(6-bromo-1H-benzo[d]imidazol-2-yl)-2-(4-methoxyphenyl)ethyl)-3-(trans-4-hydroxycyclohexyl)urea] was 0.8 nM.
The value for “1-(1-(1H-Benzo[d]imidazol-2-yl)-2-(3,5-difluoro-4-methoxyphenyl)ethyl)-3-(4-hydroxybicyclo[2.2.2]octan-1-yl)urea [Example 242]” was 70 nM; that for `O=C(NC(Cc1ccc(Br)cc1F)c1nc2ccccc2[nH]1)N[C@H]1CC[C@H](O)CC1` (single isomer, unassigned; ent-1) [Example 313, 1-(1-(1H-Benzo[d]imidazol-2-yl)-2-(4-bromo-2-fluorophenyl)ethyl)-3-(trans-4-hydroxycyclohexyl)urea (ent-1)] was 2.4 nM.
Regarding `COc1cc(F)c(CC(NC(=O)N[C@H]2CC[C@](C)(O)CC2)c2nc3ccccc3[nH]2)cc1F` (mixture of isomers) [Example 250, 1-(1-(1H-Benzo[d]imidazol-2-yl)-2-(2,5-difluoro-4-methoxyphenyl)ethyl)-3-(trans-4-hydroxy-4-methylcyclohexyl)urea], the EC50 turned out to be 7.2 nM.
The value for `N#Cc1ccc(CC(NC(=O)N[C@H]2CC[C@H](O)CC2)c2nc3ccccc3[nH]2)cc1` (relative stereo) [Example 78, 1-(1-(1H-Benzo[d]imidazol-2-yl)-2-(4-cyanophenyl)ethyl)-3-(trans-4-hydroxycyclohexyl)urea] was 693 nM; that for `COc1ccc(CC(NC(=O)NC2CCCC(O)C2)c2nc3ccccc3[nH]2)cc1` (stereo not drawn) [Example 37, 1-(1-(1H-Benzo[d]imidazol-2-yl)-2-(4-methoxyphenyl)ethyl)-3-(3-hydroxycyclohexyl)urea] was 27 nM; that for `CC(C)(C)c1ccc(CC(NC(=O)N[C@H]2CC[C@H](O)CC2)c2nc3ccccc3[nH]2)cc1` (relative stereo) [Example 79, 1-(1-(1H-Benzo[d]imidazol-2-yl)-2-(4-(tert-butyl)phenyl)ethyl)-3-(trans-4-hydroxycyclohexyl)urea] was 707 nM.
The value for `COC(=O)N1CCC(NC(=O)N[C@H](Cc2ccc(OC)cc2)c2nc3ccccc3[nH]2)CC1` [Example 139, (R)-Methyl 4-(3-(1-(1H-benzo[d]imidazol-2-yl)-2-(4-methoxyphenyl)ethyl)ureido)piperidine-1-carboxylate] was 414 nM; that for `COc1ccc(C[C@@H](NC(=O)NCCc2ccc(C)c(C)c2)c2nc3ccccc3[nH]2)cc1` [Example 275, (R)-1-(1-(1H-Benzo[d]imidazol-2-yl)-2-(4-methoxyphenyl)ethyl)-3-(3,4-dimethylphenethyl)urea] was 126 nM.
The value for `COc1ccc(CC(NC(=O)N[C@H]2CC[C@H](O)CC2)c2nc3cccnc3[nH]2)cc1` (relative stereo) [Example 427, 1-(1-(3H-imidazo[4,5-b]pyridin-2-yl)-2-(4-methoxyphenyl)ethyl)-3-(trans-4-hydroxycyclohexyl)urea] was 604 nM; that for `C[C@]1(O)CC[C@H](NC(=O)N[C@H](Cc2ccc(C(F)(F)F)cc2)c2nc3ccccc3[nH]2)CC1` [Example 256, 1-((R)-1-(1H-Benzo[d]imidazol-2-yl)-2-(4-(trifluoromethyl)phenyl)ethyl)-3-(trans-4-hydroxy-4-methylcyclohexyl)urea] was 13 nM.
As to `COc1ccc(C[C@@H](NC(=O)NC2CCN(CCc3ccccc3)CC2)c2nc3ccccc3[nH]2)cc1` [Example 105, (R)-1-(1-(1H-Benzo[d]imidazol-2-yl)-2-(4-methoxyphenyl)ethyl)-3-(1-phenethylpiperidin-4-yl)urea], the EC50 was 14 nM.
Then `COc1ccc(C[C@@H](NC(=O)NC2CC=CC2)c2nc3ccccc3[nH]2)cc1` [Example 13, (R)-1-(1-(1H-Benzo[d]imidazol-2-yl)-2-(4-methoxyphenyl)ethyl)-3-(cyclopent-3-en-1-yl)urea hydrochloride], with 27 nM; and `COc1ccc(C[C@@H](NC(=O)Nc2cccnc2)c2nc3ccccc3[nH]2)cc1` [Example 315, (R)-1-(1-(1H-Benzo[d]imidazol-2-yl)-2-(4-methoxyphenyl)ethyl)-3-(pyridin-3-yl)urea], with 299 nM; and `COc1ccc(C[C@@H](NC(=O)NCC2COc3cnccc32)c2nc3ccccc3[nH]2)cc1` (stereo partly drawn) [Example 282, 1-((R)-1-(1H-Benzo[d]imidazol-2-yl)-2-(4-methoxyphenyl)ethyl)-3-((2,3-dihydrofuro[2,3-c]pyridin-3-yl)methyl)urea], with 351 nM.
For the compound `COc1ccc(C[C@@H](NC(=O)NC(C)(C)c2ccc(Cl)cc2)c2nc3ccccc3[nH]2)cc1` [Example 352, (R)-1-(1-(1H-Benzo[d]imidazol-2-yl)-2-(4-methoxyphenyl)ethyl)-3-(2-(4-chlorophenyl)propan-2-yl)urea], the EC50 is 372 nM.
